Experimental data reported in patent US8691946B2, “Methods and compositions for soft tissue repair” (Affinergy, LLC, priority 2009, dated 2014).
Ends that are not written are not given here.

Tests used:
dermal fibroblasts = assay: Biotinylated peptide binding by flow cytometry (Neutravidin-PE); parameters: species or system human; details: biotinylated peptide 25 μM, 30 min, 4° C.
Excerpt: (§1) The synthetic biotinylated cell binding peptide SEQ ID NO: 4 was examined for its ability to specifically bind MSCs compared to a number of other cells types including adipose-derived mesenchymal stem cells (ASCs), dermal fibroblasts, rodent MSCs, red blood cells, monocytes, lymphocytes and granulocytes. The cell binding peptide was biotinylated as described herein at Example 2. Cultured cells of each type were either purchased (ASCs and dermal fibroblasts) or isolated from rodent bone marrow (rodent MSCs) or human blood. Cells were first harvested and resuspended at 10^6/mL in PBS+2% fetal bovine serum (FBS). An aliquot of cells (50 μL) was incubated in 50 μL of peptide solution (25 μM in PBS+FBS) for 30 min at 4° C. Cells were then washed twice in PBS+FBS with 300×g centrifugation for 5 min between washes. Fluorescently-tagged neutravidin (Neutravidin-PE from INVITROGEN) was then added to the cells to label biotinylated peptide bound to cells. Neutravidin-PE was diluted 1:250 from stock and applied at 50 μL to cells. Cells were then washed in PBS+FBS, and acquired on a BD […]. Peptide reactivity was then measured as percent positivity relative to Neutravidin-PE staining without the addition of biotinylated peptide.

HUVECs or UASMCs = assay: Selective isolation of endothelial versus smooth muscle cells with peptide-conjugated magnetic beads in whole blood; format: cell-based, human; details: medium containing 20% whole blood, 30 min
Protocol: (§2) The synthetic biotinylated binding peptide SEQ ID NO: 4 was further examined for its ability to bind endothelial cells compared to other cell types (see FIG. 16). […] ECFCs are clonally expanded cells isolated from human umbilical cord blood, and are considered highly proliferative endothelial progenitor cells (EPCs) based on their clonogenic and proliferative potential. In another experiment, binding peptide SEQ ID NO: 4 was assayed for its ability to selectively isolate endothelial cells versus smooth muscle cells in the presence of whole blood. HUVECs or UASMCs were incubated in the presence of medium containing 20% whole blood and binding peptide SEQ ID NO: 4-conjugated magnetic beads (via biotin-SA) for 30 min. The solutions containing the bead-peptide-cell complexes were then passed through a […] LS column in a magnetic field. The column was washed, and the remaining peptide-bound cells were then released from the magnetic field and counted.

peripheral blood cells = assay: Biotinylated peptide binding to endothelial and other cells by flow cytometry; parameters: species or system human; details: biotinylated peptide 10 μM
Protocol: as §2

[1] = system: endothelial colony forming cells (ECFCs); assay: as above; parameters: species or system human; details: biotinylated peptide 10 μM
Protocol: as §2

[2] = system: human umbilical vein endothelial cells (HUVECs); assay: as above; details: biotinylated peptide 10 μM
Protocol: as §2

[3] = system: umbilical artery smooth muscle cells (UASMCs); assay: as above; details: biotinylated peptide 10 μM
Protocol: as §2

[4] = system: MSCs captured from bone marrow; assay: Adipocyte differentiation of captured MSCs (Oil Red O); format: cell-based; details: 21 days adipocyte differentiation medium
Protocol: After capture of MSCs using cell binding peptide SEQ ID NO: 4 with the […] magnetic system according to Example 6, the ability of the captured cells to differentiate into an adipocyte lineage was examined. The MSCs present in the […] column eluants (see Example 6) were cultured for 21 days in complete medium (DMEM, 10% FBS, 100 units/mL penicillin, 100 μg/mL streptomycin, and 2 mM glutamine) supplemented with 0.5 mM isobutyl methylxanthine, 1 μM dexamethasone, 10 μM insulin, 200 μM indomethacin, and 1% antibiotic/antimycotic. Following the 21 day incubation, the cells were fixed in 4% paraformaldehyde in PBS for 15 minutes, washed in 60% isopropanol for 5 minutes, and stained with Oil Red O (SIGMA) for 10 minutes to determine the extent of adipogenesis (see FIG. 26, panels A (undifferentiated MSCs) and panel B (adipocyte differentiated MSCs)). The image of the adipose differentiated cells (FIG. 26, panel B) contains a larger magnification inset where the lipid vacuoles are clearly visible.

[5] = system: MSCs from bone marrow aspirate; assay: Capture of MSCs from bone marrow aspirate with biotinylated peptide and magnetic beads (CFU); format: cell-based
Protocol: This experiment was performed to examine the ability of cell binding peptide SEQ ID NO: 4 to capture MSCs directly from bone marrow aspirate in comparison to two separate antibodies against the CD105 I antigen (CD105) and the MSCA-1 stem cell antigen (MSCA-1). This experiment employed biotinylated peptides with streptavidin-coated […] magnetic beads. The peptides were biotinylated as described herein at Example 2. […] For the antibody capture experiment, magnetic beads having covalently attached CD105 or MSCA-1 antibody were employed ([…]). Prior to incubation with the peptides and antibodies, bone marrow aspirate (BMA) was mixed with 5 volumes of 10 mM ammonium chloride for 1-2 min at room temperature to lyse red blood cells. The lysate was centrifuged for 5 min at 300×g and the supernatant discarded. The cell pellet was washed with wash buffer (PBS+0.5% bovine serum albumin+0.5 mM EDTA) and cells were resuspended in […] peptide at a concentration of 10^8 per mL. For peptide binding studies, the cell suspension was incubated with the biotinylated peptides for 30 min at 4° C. to allow for binding. After incubation, cells were spun down at 300×g for 5 min, and peptide solution was aspirated. Cells were then rinsed twice with wash buffer, with centrifugation between washes. […] Colony forming units (CFUs) were counted after 14 days in culture. […]

HUVECs = assay: Endothelial cell phenotype and anti-thrombogenic protein secretion (flow cytometry, ELISA); format: cell-based, human; details: HUVECs on collagen with 10 μM free peptide, 24 hours
Protocol: Once immobilized on a vascular graft, endothelial cells must retain their characteristic properties of promoting endothelialization. Therefore, the phenotype, viability, and anti-thrombogenic protein expression profiles were evaluated for endothelial cells in the presence of collagen modified with the endothelial cell binding peptide SEQ ID NO: 4 (generated according to Example 7 using BS^3 reagent). […] Specifically, HUVECs were plated on SEQ ID NO: 4 peptide-modified collagen, collagen with 10 μM free SEQ ID NO: 4 peptide or collagen alone for 24 hours. Flow cytometry was performed using a BD […], and ELISAs were performed according to manufacturers instructions. (FIGS. 22A & 22B). Tissue-type Plasminogen Activator (t-PA) and 6-keto Prostaglandin F1a protein expression levels secreted in this assay are aligned with other reports on cultured HUVECS (Kimura and Yokoi-Hayashi, Biochim Biophys Acta, 1996, 1310:1-4; Merhi-Soussi et al., J Leukoc Biol, 2000, 68:881-9).

[6] = system: MSCs captured from bone marrow; assay: Osteoblast differentiation of captured MSCs (Alizarin Red S); format: cell-based; details: 14 days osteoblast differentiation medium
Protocol: For osteogenic differentiation, the MSCs present in the […] column eluants (see Example 6) were cultured for 14 days in complete medium supplemented with 0.1 μM dexamethasone, 50 μM ascorbate-2-phosphate, 10 mM β-glycerophosphate, and 1% antibiotic/antimycotic. Calcium mineralization was measured by Alizarin Red S (SIGMA) staining to reveal mineralizing osteoblasts (see FIG. 26, panel C (undifferentiated MSCs) and panel D (osteoblast differentiated MSCs)).

[7] = system: MSCs captured from bone marrow; assay: Chondrocyte differentiation of captured MSCs (aggrecan immunostaining); format: cell-based; details: 24 days CHONDRODIFF medium
Protocol: To examine chondrocyte differentiation, the MSCs present in the […] column eluants (see Example 6) were pelleted by centrifugation at 150×g for 5 minutes. Cells were washed once with 1 ml MACS NH CHONDRODIFF Medium without disturbing the pellet. Cells were spun again and 1 mL CHONDRODIFF Medium was added to each pellet. Every third day, medium was aspirated and replaced with fresh pre-warmed medium. After 24 days in culture, cells exposed to CHONDRODIFF medium formed cartilage plugs or nodules, whereas control cells formed only loose or small nodules. Cells were washed once with PBS and fixed in neutral buffered formalin overnight. Sections were embedded in paraffin and sectioned at 5 microns. Sections were examined by hemotoxylin and eosin staining (data not shown). Sections were further examined by immunostaining for aggrecan, a major structural component of cartilage. In FIG. 27, sections from the periphery (panels A and B) or center (panels C and D) were incubated with an antibody against aggrecan (ABCAM) (panels B and D) or with secondary detection reagents only as a control (panels A and C), then counterstained with DAPI to reveal cell nuclei. […] Control images of captured cells grown in the absence of differentiation medium could not be taken due to the small and loose nature of nodules.

[8] = system: human ASCs (adipose-derived mesenchymal stem cells); assay: Biotinylated peptide binding by flow cytometry (Neutravidin-PE); details: biotinylated peptide 25 μM, 30 min, 4° C.
Excerpt: as §1

human MSCs [9] = assay: as above; details: biotinylated peptide 25 μM, 30 min, 4° C.
Excerpt: as §1

human MSCs [10] = assay: Capture of cultured MSCs on peptide-coated streptavidin microbeads (LS columns); format: cell-based; details: 160,000 cultured human MSCs
Protocol: In this experiment the ability of the biotinylated cell binding peptide SEQ ID NO: 4 to capture human MSCs from a homogeneous cultured cell population was examined. The cell binding peptide SEQ ID NO: 4 was biotinylated as described herein at Example 2. The cell binding peptide SEQ ID NO: 4, and a non-binding control peptide, were added to separate 300 μl volumes of […] BIOTEC Streptavidin microbeads at a concentration of 20 μM. These beads are made from iron filings, coated with a dextran coating which is functionalized with streptavidin moieties. Peptide was incubated with beads for 45 min on ice. The 300 μl of peptide coated microbeads were added to pre-equilibrated LS columns outside of the magnetic field to evenly distribute the magnetic beads throughout the columns. Columns were then placed into a magnetic field, and excess peptide was washed away with buffer while retaining the peptide coated microbeads. Cultured and expanded human MSCs from bone marrow aspirate (160,000 cells; LONZA) were added to each LS column and allowed to pass through by gravity flow. Flowthrough was collected and cycled through the columns 5 times, after which the columns were washed with 5 ml buffer. […] The collected flowthrough with 5 ml wash and eluted cells were spun down, resuspended in a smaller volume, and counted by hemacytometer (see FIG. 17). […]

SSFWDVCQGDGTCYGGGSR (not fully specified; cysteine pairing not given here) [SEQ ID NO: 4, tested biotinylated (C-terminal GSSGK(biotin)) or attached to substrates via spacer and lysine]
binding to dermal fibroblasts (dermal fibroblasts): high binding
HUVECs isolated compared to UASMCs (HUVECs or UASMCs): 8 fold
cross-reactivity with peripheral blood cells (peripheral blood cells): no cross-reactivity
cross-reactivity with ECFCs [1]: cross-reacted strongly
cross-reactivity with HUVECs [2]: cross-reacted strongly
cross-reactivity with UASMCs [3]: weakly
adipogenesis of captured MSCs [4]: adipogenesis pathway remains intact
MSC capture from bone marrow aspirate (CFUs after 14 days) ([5]; compared with CD105 and MSCA-1 antibody beads): as efficient as capture by either of the CD105 or MSCA-1 antibodies
immunoreactivity of captured cells (CD29, CD44, CD73, CD105, CD166, CD90, CD45, CD34) ([5]; compared with CD105 isolated cells): no changes were observed
endothelial cell phenotype and anti-thrombogenic protein secretion (HUVECs): maintained their endothelial cell phenotype and their ability to secrete anti-thrombogenic proteins
osteogenic differentiation of captured MSCs [6]: osteogenic pathway remains intact
aggrecan in nodules formed from captured MSCs [7]: aggrecan could be detected
binding to human ASCs [8]: high binding
binding to human MSCs (percent positivity relative to Neutravidin-PE alone) (human MSCs [9]): high binding
capture of MSCs (human MSCs [10]): approximately 70%
